According to BigSolDB 2.1:

Nc1ccc([N+](=O)[O-])cc1[N+](=O)[O-]
solubility (mole fraction)
Conditions	in acetone	in acetonitrile	in ethanol	in ethyl acetate	in isopropanol	in methanol	in n-butanol	in n-propanol	in toluene
278.15 K	0.0281	0.00772	0.00126	0.0116	0.000854	0.00126	0.00144	0.00103	0.00033
280.65 K	0.0304	0.00829	0.0014	0.0127	0.00097	0.00138	0.00154	0.00116	0.000383
283.15 K	0.0328	0.00893	0.00154	0.0138	0.0011	0.00156	0.00172	0.00131	0.000443
285.65 K	0.0355	0.0098	0.00173	0.0151	0.00125	0.00173	0.00193	0.00146	0.000511
288.15 K	0.0381	0.0108	0.00193	0.0163	0.00142	0.00192	0.00216	0.00163	0.000573
290.65 K	0.0407	0.0118	0.00211	0.0177	0.00159	0.00212	0.00243	0.0018	0.000642
293.15 K	0.0437	0.0127	0.00232	0.0191	0.00177	0.00232	0.00271	0.00198	0.000724
295.65 K	0.0467	0.0138	0.00254	0.0205	0.002	0.00253	0.00299	0.00217	0.000814
298.15 K	0.0497	0.0149	0.00278	0.0221	0.00227	0.00276	0.00329	0.00238	0.000917
300.65 K	0.0531	0.0161	0.00304	0.0238	0.00253	0.00301	0.00365	0.00262	0.00102
303.15 K	0.0565	0.0174	0.00331	0.0257	0.00281	0.00327	0.00406	0.00287	0.00114
305.65 K	0.0604	0.0188	0.00359	0.0278	0.00313	0.00356	0.00447	0.00314	0.00128
308.15 K	0.0642	0.0203	0.00391	0.0301	0.00346	0.00386	0.00494	0.00346	0.00142
310.65 K	0.0682	0.0216	0.00428	0.0324	0.00383	0.00421	0.00543	0.0038	0.00158
313.15 K	0.0723	0.023	0.00468	0.035	0.00426	0.00456	0.00589	0.00413	0.00175
315.65 K	0.0769	0.0247	0.00511	0.0374	0.00469	0.00493	0.00646	0.00452	0.00193
318.15 K	0.0815	0.0264	0.00555	0.0403	0.00522	0.00537	0.00712	0.00493	0.00217
